Data set [1] has as its system ulcère d'estomac induit par la phénylbutazone. Nature of the data set: Phenylbutazone-induced stomach ulcer in the rat. The format is in vivo. Particulars: po, maximal decrease of ulcers, 30 min before phenylbutazone 200 mg/kg p.o., female Wistar rats, scored 2 h later, read-out: Diminution ulcération (%); for inhibition in vivo at 100 mg/kg: dose 100 mg/kg p.o.; for inhibition in vivo at 30 mg/kg: dose 30 mg/kg p.o. As to the method: Les composés de l'invention ont été testés quant à leur effet sur l'ulcère d'estomac induit par la phénylbutazone chez le rat.
Le test est effectué sur des rats Wistar femelles pesant 180-210 g à jeun depuis 20 heures, répartis en blocs randomisés.
Les ulcères sont provoqués par l'administration orale de phénylbutazone en solution mole à mole avec de la soude, à la dose de 200 mg/kg.
Les composés à étudier sont administrés par voie orale à raison de 10, 30 ou 100 mg/kg, 30 minutes avant l'ingestion de phénylbutazone, les animaux témoins ne recevant que le placébo.
Deux heures après l'administration de l'agent ulcérigène, les animaux sont sacrifiés par inhalation de chloroforme. Les estomacs sont prélevés et le degré d'ulcération est noté en aveugle de 0 à 3.
(§1) Le tableau suivant donne les toxicités et les diminutions maximales d'ulcères obtenues aux doses indiquées, pour quelques composés de l'invention.

Data set [2] in a line: Acute toxicity, oral LD50 in the mouse. The following applies: in vivo, read-out: DL50 (mg/kg) p.o. As to the method: Leur toxicité aigüe est faible : la dose léthale à 50 % (LD50) déterminée chez la souris est supérieure à 1000 mg/kg par la voie orale pour la plupart d'entre eux.
as §1

The values below come from patent EP0239461A1, “N-¬¬(hydroxy-2-phenyl)(phenyl)methylene amino-2 ethyl acetamide derivatives, process for their preparation and their therapeutical use” (SYNTHELABO, priority 1986, dated 1987).

For the compound `Cc1ccc(C(=NCCNC(=O)CN2CCC(O)CC2)c2cc(Cl)ccc2O)cc1` [compound 4], the inhibition in vivo at 100 mg/kg in data set [1] is 96%. The LD50 in data set [2] is above 1000 mg/kg.
As to `Cc1ccc(O)c(C(=NCCNC(=O)CN2CCC(O)CC2)c2ccccc2Cl)c1` [Composé n° 7, N-[[[(méthyl-5 hydroxy-2 phényl)(chloro-2 phényl)méthylène]amino]-2 éthyl] (hydroxy-4 pipéridinyl-1)-2 acétamide], the inhibition in vivo at 30 mg/kg in data set [1] was 95%. For the same compound, the LD50 in data set [2] was above 1000 mg/kg.
In the case of `O=C(CN1CCC(O)CC1)NCCN=C(c1ccccc1)c1cc(Cl)ccc1O` [Composé n° 2], the inhibition in vivo at 100 mg/kg in data set [1] was determined as 100%. In data set [2], the LD50 was above 1000 mg/kg.
With `O=C(CN1CCC(O)CC1)NCCN=C(c1ccc(Cl)c(Cl)c1)c1cc(Cl)ccc1O` [compound 5], the inhibition in vivo at 30 mg/kg in data set [1] came to 92%. In addition, the LD50 in data set [2] is above 1000 mg/kg.
`Cc1cc(Cl)cc(C(=NCCNC(=O)CN2CCC(O)CC2)c2ccc(Cl)cc2)c1O` [compound 3]: the inhibition in vivo at 30 mg/kg in data set [1] came to 94%. The LD50 in data set [2] is above 1000 mg/kg.
Consider `O=C(CN1CCNCC1)NCCN=C(c1cc(Cl)ccc1O)c1ccccc1Cl` [compound 23], for which the inhibition in vivo at 10 mg/kg in data set [1] (dose 10 mg/kg p.o.) was determined as 87%.
`O=C(CN1CCC(O)CC1)NCCNC(c1cc(Cl)ccc1O)c1ccccc1Cl` (stereo not shown) [compound 26]: in data set [1], the inhibition in vivo at 30 mg/kg was 97%. Further, the LD50 in data set [2] was above 1000 mg/kg.
As for `O=C(CN1CCN(c2ccc(Cl)cc2)CC1)NCCNC(c1cc(Cl)ccc1O)c1ccccc1Cl` (stereo not shown) [compound 29], the inhibition in vivo at 30 mg/kg in data set [1] turned out to be 98%. Besides, the LD50 in data set [2] was above 1000 mg/kg.
In the same order, the values of `Cc1ccccc1N1CCN(CC(=O)NCCNC(c2cc(Cl)ccc2O)c2ccccc2Cl)CC1` (stereo not shown) [compound 27] are 98% and above 1000 mg/kg.
Regarding `Cc1ccccc1N1CCN(CC(=O)NCCN=C(c2cc(Cl)ccc2O)c2ccccc2Cl)CC1` [compound 19], the inhibition in vivo at 100 mg/kg in data set [1] is 71%. For the same compound, in data set [2], the LD50 is above 1000 mg/kg.
In the case of `O=C(CN1CCC(O)CC1)NCCN=C(c1ccccc1Cl)c1cc(Cl)cc(Cl)c1O` [compound 6], the inhibition in vivo at 30 mg/kg in data set [1] was determined as 100%. Also, in data set [2], the LD50 was above 1000 mg/kg.
Regarding `O=C(CN1CCC(O)CC1)NCCN=C(c1cc(Cl)ccc1O)c1ccc(Cl)cc1Cl` [compound 8], the inhibition in vivo at 100 mg/kg in data set [1] amounted to 98%. The LD50 in data set [2] is above 1000 mg/kg.
With `O=C(CN1CCC(O)CC1)NCCN=C(c1cc(Cl)ccc1O)c1ccccc1Cl` [Composé n° 1, N-[[[(chloro-5 hydroxy-2 phényl)(chloro-2 phényl)méthylène]amino]-2 éthyl] (hydroxy-4 pipéridinyl-1)-2 acétamide], the inhibition in vivo at 30 mg/kg in data set [1] stood at 100%. Also, the LD50 in data set [2] is above 1000 mg/kg.
